Our source for the TGI values is PubChem BioAssay (NCI).

Assay in all cases: NCI anticancer screen, dose series, 48 h
Assay [1] has as its system SK-MEL-28 melanoma.
Assay [2] concerns SF-539 CNS.
For assay [3], the system named is MALME-3M melanoma.
Assay [4] has as its system SF-268 CNS.
Assay [5] concerns HCT-15 colon.
Assay [6] deals with SW-620 colon.
Assay [7] relates to NCI-H23 lung.
The subject of assay [8] is HCC-2998 colon.
The subject of assay [9] is OVCAR-3 ovarian.
The subject of assay [10] is UACC-62 melanoma.
In assay [11] the test system is SK-OV-3 ovarian.
Assay [12] has as its system HOP-92 NSCLC.
Assay [13] concerns OVCAR-4 ovarian.
Assay [14] concerns M14 melanoma.
Assay [15] concerns CAKI-1 renal.
For assay [16], the system named is NCI-H226 lung.
The test system of assay [17] is HT29 colon.
Assay [18] has as its system EKVX NSCLC.
Assay [19] has as its system NCI/ADR-RES ovarian.

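In this assay, cells in 96-well plates receive the compound at five concentrations for 48 hours. Endpoints are linearly interpolated between the surrounding concentrations. TGI marks complete inhibition of growth.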

`CCN1C(=O)/C(=C\c2coc3ccccc3c2=O)SC1=S`: the TGI in assay [1] was more than 100 µM; in assay [2], 90.1 µM; in assay [3], more than 100 µM; in [4], more than 100 µM; in assay [5], more than 100 µM; in assay [6], more than 100 µM. Besides, the TGI in assay [7], in assay [8], in assay [9], in [10], in assay [11] and in [12] was more than 100 µM in each case. For the same compound, the TGI in [13], in assay [14], in assay [15], in [16], in assay [17] and in [18] was more than 100 µM each time.
In the case of `CC(/C=C/c1ccccc1)=N\N=C(C)\C=C\c1ccccc1`, the TGI in assay [1], in [3], in assay [4], in assay [5], in [6] and in assay [7] was more than 100 µM throughout. The TGI in [8], in assay [9], in assay [11], in [13], in assay [14] and in [16] was more than 100 µM throughout. Further, the TGI in [17] and in [18] was more than 100 µM throughout.
Turning to `COc1ccc2c(c1)CC[C@@H]1C2CC[C@]2(C)C(=N\O)/C(=N/O)CC12` (stereo partly drawn), the TGI was 35.1 µM in assay [2]; 32.5 µM in assay [3]; 37.8 µM in assay [4]; 26.2 µM in [5]; 40.2 µM in assay [6]; 23.1 µM in [7]. Moreover, the TGI in assay [8] worked out at 37.8 µM; in assay [9] it was 26.8 µM; in assay [10] it was 26.6 µM; in assay [11], 32.6 µM; in [12] it was 30.6 µM; in assay [14] it was 32.9 µM. The TGI was found to be 24.1 µM in assay [15], 27.1 µM in [16], 5.14 µM in assay [17] and 38.9 µM in assay [18].
As for `CC1(OCc2ccccc2)C(=O)N2C1N(C(=O)OCc1ccccc1)CC2(C)C` (stereo not drawn), the TGI in [1], in [2], in [3], in [4], in assay [5] and in [6] was more than 100 µM each time. Moreover, the TGI in assay [7], in [8], in assay [9], in [10], in assay [13] and in [14] was more than 100 µM throughout. The TGI in [16], in [17] and in assay [18] was more than 100 µM throughout.
For `O=C(N/C(=C\NC1=NCCS1)C(=O)N1CSC[C@@H]1C(=O)O)c1ccccc1`, the TGI in assay [1], in assay [2], in assay [4], in assay [5], in assay [19] and in assay [6] was more than 100 µM throughout. The TGI in [7], in assay [8], in assay [9], in [10], in assay [11] and in assay [12] was more than 100 µM throughout. Also, the TGI in assay [13], in [14], in [15], in assay [16], in assay [17] and in [18] was more than 100 µM throughout.
With `O=C1OCCC12CN(Cc1ccccc1)N=N2` (stereo not drawn), the TGI in assay [1], in assay [2], in assay [3], in assay [4], in assay [5] and in [19] was more than 100 µM throughout. Moreover, the TGI in assay [6], in assay [7], in assay [8], in assay [9], in assay [10] and in assay [11] was more than 100 µM in each case. Further, the TGI in assay [12], in assay [13], in [14], in [15] and in [17] was more than 100 µM throughout.
For the compound `Cc1ccc([N+]2=NC(c3ccc([N+](=O)[O-])cc3)=NN(c3ccccc3)C2)cc1`, the TGI in [1], in assay [3], in [4], in assay [5], in assay [6] and in assay [7] was more than 100 µM throughout. Also, the TGI in assay [8] was more than 100 µM; in [9], more than 100 µM; in assay [13], 49 µM; in assay [16], more than 100 µM; in assay [17] it was more than 100 µM; in assay [18], more than 100 µM.
Take `COc1cc(C(=O)O)cc2c1[nH]c1ccccc12`: the TGI in assay [1], in assay [2], in assay [3], in assay [4], in assay [5] and in assay [6] was more than 25 µM each time. Also, the TGI in [8], in assay [9], in assay [10], in [11], in assay [12] and in assay [13] was more than 25 µM in each case. Besides, the TGI in assay [14], in assay [16] and in [17] was more than 25 µM in each case.
As for `O=C(O)COc1cc(-c2ccccc2F)nc2cc3c(cc12)OCO3`, the TGI in [1], in assay [2], in assay [3], in assay [4], in assay [5] and in [19] was more than 100 µM each time. In addition, the TGI in assay [6], in assay [7], in assay [8], in assay [9], in [10] and in assay [11] was more than 100 µM each time. Besides, the TGI in assay [12], in assay [14], in [15], in assay [16], in assay [17] and in assay [18] was more than 100 µM in each case.
